# Data reported in US20240174703A1, “THREE-COORDINATE AU(I) PROBES AND USE IN SELECTIVELY DISRUPTING MITOCHONDRIA IN CANCER CELLS” (University of Kentucky Research Foundation, priority 2021, published 2024).
# How the values were obtained:
# MDA-MB-231 [1] = assay: Cell viability (MTT assay) in TNBC cell line MDA-MB-231; assay type: cell-based; conditions: MDA-MB-231, MTT assay, 72 hours, mean ± s.e.m., n = 3
# Experimental: Cell Culture. All cell lines were purchased from ATCC and routinely grown in a humidified incubator at 37° C. with 5-10% CO2. MDA-MB-468, MDA-MB-231, MDA-MB-175, MRCS, RPE-NEO, HCT116, and K562N were grown in DMEM supplemented with 10% FBS, 1% amphotericin and 1% penicillin/streptomycin. A2780 cells were grown in RPMI supplemented with 10% FBS, 1% amphotericin, and 1% penicillin/streptomycin, and 4 mM glutamine. All supplements along with PBS and trypsin-EDTA were purchased from Corning Inc. and used as is.
# Cell Viability of AuTri-1-10 (Adherent Cell Lines). The cell viability of all 10 complexes were performed in MDA-MB-231. Additionally, AuTri-9 was evaluated in the following: MDA-MB-175, MA-MB-468, A2780, HCT116, OVCAR8 and MRCS. Cells were grown to confluency and trypsin was added to detach and harvest cells. The cells were washed with 2 mL of PBS and suspended in 10 mL of the appropriate media. The cells were centrifuged at 2000 rpm for 5 minutes and the pellet washed with 2 mL of PBS then suspended in 5 mL of the appropriate media. The cells were plated at a density of 2,000 cells/well in a 96-well clear bottom plate and allowed to adhere overnight at 37° C. with 5-10% CO2. The compounds were prepared as a stock in DMSO and used fresh. The compounds were added at seven concentrations (<1% DMSO) with a 3× serial dilution starting at 50 μM for the highest concentration and incubated at 37° C. for 72 h with 5-10% CO2. 1% DMSO were added to control wells as the vehicle control. The medium was removed and a solution of MTT (100 μL, prepared by dissolving MTT at 5 mg/mL and diluting by 10x with DMEM) was added to each well and incubated for 4 h at 37° C. with 5-10% CO2. The dye was removed from each well and 100 μL of DMSO was added to induce cell lysis. The plates were read using a Genios plate reader (λ=570 nm).
# [2] = based on gold; cited from earlier work
# MDA-MB-231 [3] = assay: Transmission electron microscopy of mitochondrial morphology; assay type: cell-based; conditions: AuTri-9 10 μM for 1 h
# Experimental: Transmission Electron Microscopy. MDA-MB-231 cells were seeded in 6 well plates and allowed to grow to 85% confluency. The cells were then treated with AuTri-9 at a concentration of 10 μM (<1% DMSO) for 1 h at 37° C. Growth media were removed and immediately and added 3% glutaraldehyde at 4° C. in 0.1 M Sorenson's or Cacodylate Buffer. After 5 minutes remove fix and replace with fresh fixative, leave for 45 min-1 hr at 4° C., washed in 0.1 M buffer w/5% sucrose 4×, 5 minutes each. Post fix, the cells were stained with 1% OsO4 in 0.1 M buffer for 1 hr at 4° C. and washed in 0.1 M buffer 1×. The cells were dehydrated in graded ethanols, 5 minutes each, from 50% through 100% and absolute ethanol (2×) at 4° C. After the last alcohol wash remove the residual alcohol with a small pipette and immediately add straight resin (14.5 g Eponate 12, 8.0 g DDSA, 7.15 g NMA, and 0.85 gm BDMA) to the dish. Swirl the dish and then remove as much of the resin, (which may contain residual alcohol), with a plastic pipette being careful not to disturb the cell layer. Then add straight resin 2× for 1-2 hours and place under the lamp, on a shaker. Pour off the 2nd straight resin wash, let the plate drain well (leaving a layer of resin on the bottom) and invert labeled beem capsules into each well that have had the conical ends removed. […]
SMILES,IC50 (MDA-MB-231 [1]) [µM],also measured
"c1cnc2c(c1)ccc1cccnc12 [1,10-phenantrholine]",,IC50 (MDA-MB-231 [1]; Homo sapiens): 7.21 ± 1.68 µM
"Cc1ccnc2c1ccc1c(C)ccnc12 [4,7-dimethylphenanthroline]",,IC50 (MDA-MB-231 [1]; Homo sapiens): 14.1 ± 2.58 µM
CC(=O)OC[C@H]1O[C@@H]([S-])[C@H](OC(C)=O)[C@@H](OC(C)=O)[C@@H]1OC(C)=O.CCP(CC)CC.[Au+] [Auranofin],1.31 ± 0.15,MTD (maximum tolerated dose) [2]: 12 mg/kg
c1ccc(-c2ccnc3c2ccc2c(-c4ccccc4)ccnc23)cc1 [Bathophenanthroline],7.48 ± 1.64,
c1ccc(-c2ccccn2)nc1 [Bipyridine],17.5 ± 0.354,
N.N.[Cl][Pt][Cl] [Cisplatin],34.6 ± 0.783,
"OO [H2O2, hydrogen peroxide]",,"mitochondrial morphology by TEM (MDA-MB-231 [3]): distinct cytoplasmic swelling and membrane rupture (white star) is observed; however, the mitochondria structure remains intact"
[F][Sb-]([F])([F])([F])([F])[F].[Na+] [NaSbF6],> 50,
CN[C@@H]1C[C@H]2O[C@@](C)([C@@H]1OC)n1c3ccccc3c3c4c(c5c6ccccc6n2c5c31)C(=O)NC4 [staurosporine],,mitochondrial morphology by TEM (MDA-MB-231 [3]): no distinct morphological changes to mitochondria
